Consider one molecule from patent US20150258108A1 (priority 2014, published 2015).

The structures appear in SMILES notation. “And” between values parts separate entries of the source, which are not always exact repeats. Identical values can stand only once.

Data set [1] concerns the target T1, human OPRM (Homo sapiens, UniProt P35372). Briefly: biochemical. In kind it is biochemical. On the set-up: expressed in transfected cells; host or cells: CHO-K1 (cell lines provided by Dr. Toll, Torrey Pines Institute).
Data set [2] can be described thus: Pupillometry and cold pressor test in healthy volunteers. The data set is classed as in vivo, human. The following applies: 3-60 mg single oral dose. The procedure:
Pulse oximetry and capnography data were collected continuously using a GE Carescape B650 monitoring system from 2 hours prior to dosing and until six hours after dosing, and thereafter at 12, 24, 48 and 72 hours post-dosing. Additional oximetry data were collected at 120, 168 and 216 hours. Pupillary miosis was assessed by pupillometry. Dark-adapted pupil diameter was measured in triplicate using a Neuroptics PLR-200 pupillometer under standardized light intensity (<5 lux) pre-dose, and at 2, 4, 6, 12, 24, 48, 72, 96, 120, 168 and 216 hours post-dosing.
Summary statistics (means, standard deviations, and coefficients of variation) were determined for each dose group for safety laboratory test data, ECG and pharmacokinetic parameters, and pharmacodynamic variables. Categorical variables were analysed using counts and percentages. Dose-proportionality of AUC and Cmax was assessed using linear regression. The effect of dose on pharmacodynamic parameter values over time was assessed using two-factor analysis of variance (ANOVA). […]
Analgesic effect was assessed based on duration of hand immersion in ice water and on visual analog scale (VAS) pain scores upon hand removal from the water bath. […]

In data set [3] the target is T2, human OPRK (κ-opioid receptor) (Homo sapiens, UniProt P41145).
T2 construct: purchased PerkinElmer Life Sciences (Boston, Mass.)
Briefly: biochemical. The data set is classed as binding. The following applies: Ki, OPRK, [3H]-U69,593 binding; This work.

The subject of data set [4] is human OPRK (κ-opioid receptor). Briefly: biochemical. The data set is classed as binding. The following applies: ΔpKi = pKi(OPRK)-pKi(OPRM).
Data set [5] is described as follows: Pharmacokinetics in opioid-dependent patients (Phase IB). The following applies: 60, 120, 180 mg cohorts.
For data set [6], the target named is human OPRM (μ-opioid receptor) (Homo sapiens, UniProt P35372). Put plainly: biochemical. The data set is classed as binding. Also noted: expressed in transfected cells; host or cells: CHO-K1 (cell lines provided by Dr. Toll, Torrey Pines Institute).
In data set [7] the target is T1, human OPRM. Briefly: cell-based. In kind it is cell-based. On the set-up: host or cells: CHO-K1.

T1 sequence (P35372 whole entry): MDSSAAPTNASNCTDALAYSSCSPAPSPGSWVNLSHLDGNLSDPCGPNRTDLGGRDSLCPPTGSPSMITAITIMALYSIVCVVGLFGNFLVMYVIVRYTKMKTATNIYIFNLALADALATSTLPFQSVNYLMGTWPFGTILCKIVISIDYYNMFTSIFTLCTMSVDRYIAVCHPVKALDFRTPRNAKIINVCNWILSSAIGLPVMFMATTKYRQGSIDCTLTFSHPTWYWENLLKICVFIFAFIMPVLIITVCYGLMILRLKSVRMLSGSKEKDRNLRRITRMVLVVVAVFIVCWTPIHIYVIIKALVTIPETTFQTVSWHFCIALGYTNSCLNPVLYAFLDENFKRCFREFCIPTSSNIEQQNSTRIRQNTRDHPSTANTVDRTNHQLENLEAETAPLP
T2 sequence (P41145 whole entry): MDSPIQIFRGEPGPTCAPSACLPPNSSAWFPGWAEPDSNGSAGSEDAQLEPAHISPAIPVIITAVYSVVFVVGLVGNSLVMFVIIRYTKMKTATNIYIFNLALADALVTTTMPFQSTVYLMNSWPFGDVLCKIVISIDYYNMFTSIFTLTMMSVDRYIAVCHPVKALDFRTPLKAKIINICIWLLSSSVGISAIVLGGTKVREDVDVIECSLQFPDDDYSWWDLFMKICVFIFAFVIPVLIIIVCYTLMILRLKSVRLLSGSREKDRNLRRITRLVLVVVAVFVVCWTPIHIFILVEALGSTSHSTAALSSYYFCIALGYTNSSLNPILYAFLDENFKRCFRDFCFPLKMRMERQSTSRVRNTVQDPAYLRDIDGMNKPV
human OPRM (μ-opioid receptor), sequence (P35372 whole entry): as the sequence (P35372 whole entry) above

Usually IC50 stands for the point on the concentration scale where inhibition reaches its midpoint. High values mean lower potency, low ones higher potency. Broadly, the EC50 is the concentration needed to bring the measured effect to its halfway point. Low values mean higher potency in that assay, high ones lower potency in that assay. For orientation: Ki means a dissociation constant, usually derived from enzyme kinetics or from competition with a known ligand. Read a high Ki as weaker binding. On to `CC[C@H]1CC2C[C@H]3c4[nH]c5ccc(O)cc5c4CCN(C2)C13` [Noribogaine], for which, on human OPRM [1], half-maximal inhibition (IC50) was put at 134 ± 17 µM; the Ke was found to be 19 ± 5 µM; the “Ke (functional inhibition constant)” value was 19.203 µM; the “antagonist potency, OPRM G-protein pathway” value amounted to 20 µM. Moreover, the e-coupling at human OPRM [1] was 1.02 and 1.10. At human OPRM [1] (EC50), this molecule gave an EC50 of 16.1 µM. On human OPRM [1] (Ke), the Kb was 28 ± 14 µM. This molecule also gave an EC50 on human OPRM [1] (approximated EC50) of approximately 16 µM. This molecule also showed a Kb on human OPRM [1] (pEC50, (Ke): pKe) of 20 µM. The “analgesic effect in the cold pressor test” value in data set [2] (hand immersion duration and VAS pain scores) is reported as “no analgesic effect”. Moreover, the “pupillary constriction (pupillometry, dark-adapted pupil diameter)” value in data set [2] (vs placebo) is reported as “no evidence of pupillary constriction”. Further, in data set [3], the Ki was 0.72 µM and 0.7 µM. Moreover, the “Specificity ΔpKi” value in data set [4] was 0.4 and 0.3. Further, in data set [5], the “Maximum serum concentration (Cmax) versus dose” value is “increased in a dose-dependent manner”. Besides, in data set [6], the affinity corresponds to a Ki of 1.52 ± 0.3 µM. On human OPRM [7], the EC50 is approximately 1.15 µM, the Efficacy is 3%, the IC50 is approximately 57 µM and the Ke is approximately 4.8 µM. Also, at human OPRM [7], the “agonism at OPRM β-arrestin-2 recruitment” value is “not an agonist at OPRM”, the e-coupling is given as approximately 1.10 and the “inhibition of agonist response (up to)” value is 60-100%. This molecule also showed a Kb on human OPRM [7] (pEC50, pKe) of 63.1 µM.
